Reference: publication PMC4485422 (Neuron, 2015)

Target: sepiapterin reductase (hSPR) (Homo sapiens, UniProt P35270)
Assay: cell-free TR-FRET binding assay

Sequence of sepiapterin reductase (hSPR) (P35270 whole entry): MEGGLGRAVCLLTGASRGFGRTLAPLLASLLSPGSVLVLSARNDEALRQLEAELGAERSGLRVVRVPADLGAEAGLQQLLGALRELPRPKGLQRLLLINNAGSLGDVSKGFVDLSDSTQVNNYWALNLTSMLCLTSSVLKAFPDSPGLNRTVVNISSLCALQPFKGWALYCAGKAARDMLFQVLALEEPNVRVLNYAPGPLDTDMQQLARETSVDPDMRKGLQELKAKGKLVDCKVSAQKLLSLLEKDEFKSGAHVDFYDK

Q: With `CC(=O)NCCc1c[nH]c2ccc(O)cc12` [NAS, N-acetylserotonin] as the molecule, how does the IC50 read?
A: 1900 nM
